Experimental data as given in patent US20170029366A1, “INHIBITORS OF HISTONE LYSINE SPECIFIC DEMETHYLASE (LSD1) AND HISTONE DEACETYLASES (HDACS)” (THE JOHNS HOPKINS UNIVERSITY, priority 2014, published 2017).
Where “and” joins values, the source holds several entries; their conditions need not be identical. Identical values can stand only once.

Legend:
MAO-A = target: T1, MAO-A (Homo sapiens, UniProt P21397); test: MAO-A activity and inhibition assay (peroxidase-coupled, tyramine); assay type: biochemical
T1 construct: purchased Sigma M 7316
T1 sequence (P21397 1-527): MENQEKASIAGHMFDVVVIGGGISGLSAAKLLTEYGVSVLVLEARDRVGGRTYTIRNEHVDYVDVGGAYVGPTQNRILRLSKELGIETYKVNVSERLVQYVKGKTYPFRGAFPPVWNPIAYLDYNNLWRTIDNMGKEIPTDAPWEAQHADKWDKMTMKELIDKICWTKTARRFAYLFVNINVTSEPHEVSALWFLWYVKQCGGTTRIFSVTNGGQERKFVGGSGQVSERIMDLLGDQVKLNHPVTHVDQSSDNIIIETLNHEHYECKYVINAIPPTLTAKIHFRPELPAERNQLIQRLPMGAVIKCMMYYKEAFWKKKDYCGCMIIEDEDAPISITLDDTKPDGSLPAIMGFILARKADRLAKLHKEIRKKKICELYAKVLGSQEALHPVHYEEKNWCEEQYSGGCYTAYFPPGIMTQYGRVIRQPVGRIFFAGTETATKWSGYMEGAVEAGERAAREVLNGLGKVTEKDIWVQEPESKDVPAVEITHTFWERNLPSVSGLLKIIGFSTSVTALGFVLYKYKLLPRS
Procedure: (§1) MAO-A/B activity was measured spectrophotometrically using a peroxidase-coupled assay as previously described.
(§2) Each experiment was repeated at least two independent times and repeat measured values were typically within 20% of each other.

MAO-B = target: T2, MAO-B (Homo sapiens, UniProt P27338); test: MAO-B activity and inhibition assay (peroxidase-coupled, tyramine); assay type: biochemical
T2 construct: purchased Sigma M 7441
T2 sequence (P27338 1-520): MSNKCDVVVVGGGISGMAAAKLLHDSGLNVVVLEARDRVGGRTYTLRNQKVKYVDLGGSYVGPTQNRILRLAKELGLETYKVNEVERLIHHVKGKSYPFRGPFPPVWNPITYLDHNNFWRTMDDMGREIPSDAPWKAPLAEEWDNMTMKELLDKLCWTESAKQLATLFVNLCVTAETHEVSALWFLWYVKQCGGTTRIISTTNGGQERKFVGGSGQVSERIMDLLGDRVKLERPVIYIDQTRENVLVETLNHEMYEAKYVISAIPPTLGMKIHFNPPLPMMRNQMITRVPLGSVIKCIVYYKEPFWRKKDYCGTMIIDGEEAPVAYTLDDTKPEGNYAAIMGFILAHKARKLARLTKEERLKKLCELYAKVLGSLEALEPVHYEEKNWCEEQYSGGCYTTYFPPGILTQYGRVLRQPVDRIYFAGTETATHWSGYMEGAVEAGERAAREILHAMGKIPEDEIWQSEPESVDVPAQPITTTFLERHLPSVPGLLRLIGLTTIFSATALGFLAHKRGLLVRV
Procedure: as §1, §2

H3K4Me2 in LNCaP cells = test: Western blot of histone H3 marks in LNCaP cells; assay type: cell-based
Source text: Histone extracts were isolated as described previously. […] Data are presented from one representative experiment.
H3K4Me was detected using a polyclonal rabbit antibody (abcam ab8895). H3K4Me2 was detected using a monoclonal rabbit antibody (abcam ab32356). H3K4Me3 was detected using a polyclonal rabbit antibody (abcam ab8580). […] H3K9Me2 was detected using a monoclonal mouse antibody (abcam ab1220). H3K36Me3 was detected using a polyclonal rabbit antibody (abcam ab9050). H3K9Ac was detected using a polyclonal rabbit antibody (abcam ab4441). Total H3 was detected using a polyclonal rabbit antibody (abcam ab1791). LSD1 was detected using a polyclonal rabbit antibody (abcam ab17721). Actin was detected using a monoclonal mouse antibody (Sigma A1978).

H3K4Me2 in H460 cells = test: Western blot of H3K4Me2 in H460 cells; assay type: cell-based; conditions: 48 h, compared with LNCaP
H3K4Me2 in A549 cells = test: Western blot of H3K4Me2 in A549 cells; assay type: cell-based; conditions: 48 h
H3K4Me2 in MB-231 cells = test: Western blot of H3K4Me2 in MB-231 cells; assay type: cell-based; conditions: 48 h
H460 cells = test: [3H] thymidine incorporation assay in H460 cells; assay type: cell-based; conditions: Homo sapiens, NCI-H460, 48 h, read-out: IC50 of cellular proliferation rate (3H-thymidine incorporation)
LNCaP cells = test: [3H] thymidine incorporation assay in LNCaP cells; assay type: cell-based; conditions: Homo sapiens, 48 h, read-out: IC50 of cellular proliferation rate (3H-thymidine incorporation)
Procedure: The effects of bizine on cell proliferation using a ^3H-thymidine incorporation assay were examined as a measure of the rate of DNA synthesis.
6 hours prior to harvesting cells, 10 μL of 0.1 mCi/mL Thymidine [methyl-3H] (ARC ART0178) was added to each well. The cells were then harvested (PerkinElmer) and radioactivity was measured with a liquid scintillation counter (PerkinElmer MicroBeta).

[1] = tested on: Immature primary cortical neurons; test: Oxidative toxicity (HCA) and neuron viability assay (MTT); assay type: cell-based, Sprague Dawley rats; conditions: 0.5 μM, 5 mM HCA, MTT
Procedure: The next day cells were rinsed and then placed in medium containing 5 mM HCA. […] The next day, cell viability was assessed by the MTT assay (Promega). […] The two-way ANOVA followed by the Bonferroni posttest was used to measure statistical significance. p<0.05 was considered to be statistically significant. Each bar represents four different rat cultures.

GST-LSD1 [2] = target: T3, GST-LSD1 (Homo sapiens, UniProt O60341)
GST-LSD1 [3] = target: T3, GST-LSD1; test: MassSQUIRM LSD1 inhibition assay; assay type: biochemical; design: made in house; host or cells: E. coli; conditions: 50 μM inhibitor, 215 nM GST-LSD1, 30 min, 25° C.
Procedure: MassSQUIRM inhibition experiments were performed in triplicate as described previously. […] The demethylase reactions were run at 25° C. for 30 min and then analyzed as reported previously.

`Cl.Cl.NNCCc1ccc(NC(=O)CCCc2ccccc2)cc1` [Compound 12d, N-[4-(2-Hydrazinylethyl)phenyl]-4-phenylbutanamide dihydrochloride] was tested, and the “k(inact)” value (MAO-A) was 0.30 ± 0.11 min⁻¹, the “k(inact)” value (MAO-B) was 0.26 ± 0.14 min⁻¹ and the “time of compound exposure at which changes in H3K4Me2 could be detected” value (H3K4Me2 in LNCaP cells; 10 μM) was ≤ 6 h. For the same molecule, the EC50 (H3K4Me2 in LNCaP cells; Homo sapiens, 48 h, Western blot, read-out: EC50 of increase in H3K4Me2 signal) was ~2 µM, the “effects on H3K4Me2 levels (in words)” value (H3K4Me2 in H460 cells) was “comparable dose-response effects” and the “concentration required for reproducible increases in H3K4Me2” value (H3K4Me2 in A549 cells) was 20 µM. For the same molecule, the “concentration required for reproducible increases in H3K4Me2” value (H3K4Me2 in MB-231 cells) was 20 µM, the IC50 (H460 cells) was 14 µM and the IC50 (LNCaP cells) was 16 µM. The “survival of neurons after HCA-treatment” value [1] was “significantly enhanced survival of neurons”, the “k(inact)” value (GST-LSD1 [2]; GST-LSD1, peroxidase-coupled assay, dihydrochloride) was 0.15 min⁻¹ and 0.15 ± 0.017 min⁻¹ and the “LSD1 inhibitory potency (in words)” value (GST-LSD1 [2]; structure-activity comment on Table 1) was “most potent LSD1 inhibitor”. For the same molecule, the “LSD1 inhibition in MassSQUIRM assay (in words)” value (GST-LSD1 [3]) was “very substantial LSD1 inhibition”.
